Results as given in paper PMC9849758, “Chemically diverse activity-based probes with unexpected inhibitory mechanisms targeting trypsin-like serine proteases” (Frontiers in Chemistry, 2023).
Entries after “also recorded” stand apart in the source; their conditions may differ. Counter-ions that a name gives are not always drawn.

Experiments:
Assay type in all cases: biochemical
β-tryptase = β-tryptase (Homo sapiens, UniProt P20231); experiment: Jump dilution, determination of inhibition type; design: purchased EnzoLife Sciences; conditions: inhibitor at 10 times IC50, 15 min, diluted 10-fold or 100-fold; Rev./Irrev.
Chain of β-tryptase (P20231 31-275): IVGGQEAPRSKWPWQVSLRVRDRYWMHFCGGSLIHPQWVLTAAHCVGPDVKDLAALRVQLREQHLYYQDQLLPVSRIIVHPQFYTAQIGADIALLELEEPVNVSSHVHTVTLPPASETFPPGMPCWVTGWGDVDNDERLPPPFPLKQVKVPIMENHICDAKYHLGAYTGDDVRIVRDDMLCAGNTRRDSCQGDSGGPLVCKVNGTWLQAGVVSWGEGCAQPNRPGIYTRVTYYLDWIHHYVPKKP
Procedure: (§1) The dissociation of the enzyme-inhibitor complex was monitored by substrate hydrolysis over time ([Joossens et al., 2006]).
(§2) Because ABPs are designed to be irreversible serine protease inhibitors, the IC50 is exclusively used as a first discriminatory evaluation. When an inhibitor is irreversible, its IC50 value not only depends on the substrate and enzyme concentration but also on the time of incubation with the enzyme before the reaction is started by adding the substrate. […] The progress curve in the presence of an irreversible inhibitor will show final velocities equal to zero (Figure 6C). In contrast, for a reversible inhibitor, progress curves have a non-zero final steady-state velocity (Figure 6A) ([McWhirter, 2021]). To corroborate the inhibitory mechanism of the compounds, jump-dilution assays were performed. These use an inhibitor concentration of 10-fold the IC50 for the incubation, and a posteriori, the reaction mixture is diluted 10-fold or 100-fold before adding the substrate. In the case of an irreversible inhibitor, enzymatic activity is not regained (Figure 6D), whereas, in the case of a reversible compound, a slow release of the inhibitor and a gradual increase of the enzymatic activity rate is observed (Figure 6B) ([Copeland, 2013]; [McWhirter, 2021]). The jump-dilution assays confirmed the behavior described by the progress curves.
(§3) 2.2.2 Jump dilution results
(§4) Supplementary Table 2. Jump dilution of selected alkyne and desthiobiotin probes against a panel of trypsin-like serine proteases. […]
(§5) # R R DtBa 3 tryptase Thrombin uPA CatG
(§6) 32b H Alk Irrev. Irrev. Rev. Irrev. Rev.
(§7) 45b DtB Irrev. Irrev. Rev. N.D. N.D.
(§8) 33b Alk Irrev. Irrev. Rev. Irrev. Rev.
(§9) 46b Cl DtB Irrev. Irrev. Rev. N.D. N.D.
(§10) 34b H Alk Rev. Rev. Rev. Irrev. Rev.
(§11) 50b DtB Rev. Rev. Rev. Irrev. Rev.
(§12) 35b Alk Rev. Rev. Rev. Irrev. Rev.
(§13) 52b NHCOMe DtB Rev. Rev. Rev. Irrev. Rev.
(§14) 36b Alk Rev. Rev. Rev. Irrev. Rev.
(§15) 54b Cl DtB Rev. Rev. Rev. Irrev. Rev.
(§16) 37b Alk Irrev. Irrev. N.D. Irrev. Irrev.
(§17) 55b H DtB Irrev. Irrev. N.D. Irrev. Irrev.
(§18) 38b Alk Irrev. Irrev. N.D. Irrev. Irrev.
(§19) 56b NHCOMe DtB Irrev. Irrev. N.D. Irrev. Irrev.
(§20) 39b Alk Irrev. Irrev. N.D. Irrev. Rev.
(§21) 57b Cl DtB Irrev. Irrev. N.D. Irrev. Rev.
(§22) 41b H Alk Irrev. Irrev. Irrev. N.D. N.D.
(§23) 31b Pro-Lys H Alk Irrev. Irrev. Irrev. Irrev. N.D. a Alk: ABP precursor bearing an alkyne; DtB: desthiobiotin probe b Panel of serine proteases abbreviations: urokinase plasminogen activator (uPA), cathepsin G (catG) N.D.: IC50 is greater than 10µM, and jump dilution was not performed
(§24) 2.2.3 Progress curves and Jump dilution experiments
(§25) Kinetic assays were performed in the following manner. The inhibitor was mixed with the substrate, and the buffer solution with the enzyme was added at the time zero. The progress curves show the release of para-nitroaniline (pNA) or 7-amino-4-methyl coumarin (AMC) as a function of time.
(§26) To monitor the dissociation of the inhibitor-enzyme, aliquots of the enzyme were incubated at 37 °C without and with the inhibitor at a concentration 10 times higher than its IC 50. The enzyme […]
(§27) min, the aliquots were diluted 10-fold or 100-fold into the substrate concentration and assay buffer used for the IC50 determination. The dissociation of the enzyme-inhibitor complex was monitored by substrate hydrolysis over time. Blue lines represent the control where no inhibitor was present. Pink lines represent the assay with inhibitor.

uPA = target: T1, uPA (Homo sapiens, UniProt P00749); experiment: Kinetic progress curves (kapp, mechanism); conditions: for uPA kapp: apparent second-order rate constant from progress curves, mean ± SD; for uPA mechanism of inhibition: defined by the progress curves: slow-binding (Rev.) or irreversible (Irrev.)
T1 construct: purchased HYPHEN BioMed
Procedure: (§28) Because the compounds described in this paper were previously described as irreversible inhibitors, the IC50 value is inversely correlated with the second-order rate constant of inactivation. For a simple pseudo-first-order inactivation process, the activity after incubation with inhibitor (vi) varies with the inhibitor concentration (i), as described in the following equation: vi=v0·e^−kit where v0 is the activity in the absence of an inhibitor, k is the second-order rate constant of inactivation, and t is the time. The inactivation rate constant was determined from the time course of inhibition.
(§29) Kinetic assays were performed in the following manner. The inhibitor was mixed with the substrate, and the buffer solution with the enzyme was added at the time zero. The progress curves show the release of pNA or AMC as a function of time. Initially, no inhibitor is bound to the enzyme, and the tangent to the progress curve (dA/dt) is proportional to the free enzyme concentration. The free enzyme concentration decreases over time due to inhibitor binding kinetics, as described above. Progress curves were recorded in pseudo-first-order conditions ([I]0>>[E]0) and with less than 10% conversion of the substrate during the entire time course. In these conditions, dA/dt decreases exponentially with time. The progress curves were fitted with the integrated rate equation with GraFit7 to yield a value for kobs, a pseudo-first-order rate constant. At=Ao+vs∙t+vi−vs∙1−e^−kobs∙t/kobs where At is the absorbance at time t, A0 is the absorbance at time zero, vi is the initial rate and vs is the velocity at the steady-state.
(§30) The apparent second-order rate constant (kapp) was calculated from the slope of the linear part of the plot of kobs vs. the inhibitor concentration ([I]0). In the case of competition between the inhibitor and the substrate, kapp is smaller than the “real” second-order rate constant k discussed above because a certain fraction of the enzyme is present as an enzyme-substrate complex. kapp depends on the substrate concentration used in the experiment, as described by [Lambeir et al. (1996)].
(§31) The apparent equilibrium constants were obtained from the following equations, vi/vo=1/1+I/K1; vS/vo=1/1+I/KI* where vi is the initial rate, vs is the steady-state velocity and vo is the uninhibited initial rate.

CatG [1] = target: T2, CatG (Homo sapiens, UniProt P08311); experiment: Jump dilution, determination of inhibition type; design: Cathepsin G (cathepsin G human neutrophil, Sigma-Aldrich); purchased Sigma-Aldrich; conditions: inhibitor at 10 times IC50, 15 min, diluted 10-fold or 100-fold; Rev./Irrev.
T2 sequence (P08311 21-255): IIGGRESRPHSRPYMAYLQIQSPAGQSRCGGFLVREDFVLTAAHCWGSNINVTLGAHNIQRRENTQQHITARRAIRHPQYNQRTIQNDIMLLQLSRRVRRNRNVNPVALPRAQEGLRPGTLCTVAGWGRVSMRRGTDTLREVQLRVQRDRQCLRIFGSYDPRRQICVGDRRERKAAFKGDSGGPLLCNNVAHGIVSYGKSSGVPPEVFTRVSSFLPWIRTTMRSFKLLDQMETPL
Procedure: as §1, §2, §3, §4, §5, §6, §7, §8, §9, §10, §11, §12, §13, §14, §15, §16, §17, §18, §19, §20, §21, §22, §23, §24, §25, §26, §27

CatG [2] = target: T2, CatG; experiment: Kinetic progress curves (kapp, mechanism); design: Cathepsin G (cathepsin G human neutrophil, Sigma-Aldrich); purchased Sigma-Aldrich; host or cells: human neutrophil; conditions: for CatG mechanism of inhibition: defined by the progress curves: slow-binding (Rev.) or irreversible (Irrev.); for CatG kapp: apparent second-order rate constant from progress curves, mean ± SD
Procedure: as §28, §29, §30, §31

SMILES | β-tryptase jump dilution result (β-tryptase) | uPA kapp (uPA) | uPA mechanism of inhibition (uPA) | CatG jump dilution result (CatG [1]) | CatG mechanism of inhibition (CatG [2]) | CatG kapp (CatG [2])
CC(=O)Nc1ccc(OP(=O)(Oc2ccc(NC(C)=O)cc2)C(Cc2ccc(NC(=N)N)cc2)NC(=O)OCCCc2cn(CCOCCOCCOCCNC(=O)CCCCC[C@H]3NC(=O)N[C@H]3C)nn2)cc1 (stereo partly shown) [52b] | Rev. and Reversible | 38 × 10^3 ± 4175 M^−1 s^−1 | Irrev. | Rev. | * ^d Rev. | 
C#CCCCOC(=O)NC(c1ccc(NC(=N)N)cc1)P(=O)(Oc1ccccc1)Oc1ccccc1.O=C(O)C(F)(F)F (stereo not shown) [37b, Pent-4-yn-1-yl ((diphenoxyphosphoryl)(4-guanidinophenyl)methyl)carbamate trifluoroacetate salt] | Irrev. | 124 ± 23 M⁻¹ s⁻¹ | Irrev. | Irrev. | Irrev. | 582 ± 2 M⁻¹ s⁻¹
C[C@@H]1NC(=O)N[C@@H]1CCCCCC(=O)NCCOCCOCCOCCn1cc(CCCOC(=O)NC(Cc2ccc(NC(=N)N)cc2)P(=O)(Oc2ccccc2)Oc2ccccc2)nn1 (stereo partly drawn) [50b, 3-(1-(18-((4R,5S)-5-methyl-2-oxoimidazolidin-4-yl)-13-oxo-3,6,9-trioxa-12-azaoctadecyl)-1H-1,2,3-triazol-4-yl)propyl (1-(diphenoxyphosphoryl)-2-(4-guanidinophenyl)ethyl)carbamate trifluoroacetate salt] | Rev. | 33000 ± 12000 M⁻¹ s⁻¹ | Irrev. | Rev. | * ^d Rev. | 
C[C@@H]1NC(=O)N[C@@H]1CCCCCC(=O)NCCOCCOCCOCCn1cc(CCCOC(=O)NC(c2ccc(NC(=N)N)cc2)P(=O)(Oc2ccccc2)Oc2ccccc2)nn1 (stereo partly shown) [55b] | Irrev. | 77 ± 1 M⁻¹ s⁻¹ | Irrev. | Irrev. | Irrev. | 301 ± 85 M⁻¹ s⁻¹
C#CCCCOC(=O)NC(C1CCN(C(=N)N)CC1)P(=O)(Oc1ccccc1)Oc1ccccc1 (stereo not shown) [41b] | Irrev. |  |  |  |  | 
C#CCCCOC(=O)NC(c1ccc(NC(=N)N)cc1)P(=O)(Oc1ccc(NC(C)=O)cc1)Oc1ccc(NC(C)=O)cc1 (stereo not shown) [38b, Pent-4-yn-1-yl ((bis(4-acetamidophenoxy)phosphoryl)(4-guanidinophenyl)methyl) carbamate] | Irrev. | 215 ± 7 M⁻¹ s⁻¹ | Irrev. | Irrev. | Irrev. | 14 × 10^2 ± 52 M^−1 s^−1
C[C@@H]1NC(=O)N[C@@H]1CCCCCC(=O)NCCOCCOCCOCCn1cc(CCCOC(=O)NC(c2ccc(NC(=N)N)cc2)P(=O)(Oc2ccc(Cl)cc2)Oc2ccc(Cl)cc2)nn1 (stereo partly shown) [57b] | Irrev. | 25 × 10^2 ± 11 M^−1 s^−1 | Irrev. | Rev. | reversibly and Rev. | 11 × 10^2 ± 117 M^−1 s^−1
C#CCCCOC(=O)NC(c1ccc(NC(=N)N)cc1)P(=O)(Oc1ccc(Cl)cc1)Oc1ccc(Cl)cc1 (stereo not shown) [39b, Pent-4-yn-1-yl ((bis(4-chlorophenoxy)phosphoryl)(4-guanidinophenyl)methyl)carbamate] | Irrev. |  | Irrev. | Rev. | reversibly and Rev. | 
C[C@@H]1NC(=O)N[C@@H]1CCCCCC(=O)NCCOCCOCCOCCn1cc(CCCOC(=O)NC(CCCNC(=N)N)P(=O)(Oc2ccc(Cl)cc2)Oc2ccc(Cl)cc2)nn1 (stereo partly shown) [46b] | Irrev. | 940 ± 37 M⁻¹ s⁻¹ | Irrev. |  |  | 
C#CCCCOC(=O)NC(CCCNC(=N)N)P(=O)(Oc1ccccc1)Oc1ccccc1 (stereo not shown) [32b] | Irrev. | 41 ± 4 M⁻¹ s⁻¹ | Irrev. | Rev. | * ^d Rev. | 
CC(=O)Nc1ccc(OP(=O)(Oc2ccc(NC(C)=O)cc2)C(NC(=O)OCCCc2cn(CCOCCOCCOCCNC(=O)CCCCC[C@H]3NC(=O)N[C@H]3C)nn2)c2ccc(NC(=N)N)cc2)cc1 (stereo partly shown) [56b] | Irrev; also recorded: Irreversible | 62 ± 2 M⁻¹ s⁻¹ | Irrev. | Irrev. | Irrev. | 420 ± 37 M⁻¹ s⁻¹
C[C@@H]1NC(=O)N[C@@H]1CCCCCC(=O)NCCOCCOCCOCCn1cc(CCCOC(=O)NC(CCCNC(=N)N)P(=O)(Oc2ccccc2)Oc2ccccc2)nn1 (stereo partly shown) [45b] | Irrev. |  |  |  |  | 
C#CCCCOC(=O)NC(Cc1ccc(NC(=N)N)cc1)P(=O)(Oc1ccccc1)Oc1ccccc1 (stereo not shown) [34b] | Rev. | 75 × 10^2 ± 725 M^−1 s^−1 | Irrev. | Rev. | * ^d Rev. | 
C#CCCCOC(=O)NC(Cc1ccc(NC(=N)N)cc1)P(=O)(Oc1ccc(Cl)cc1)Oc1ccc(Cl)cc1 (stereo not shown) [36b] | Rev. | 320000 ± 29000 M⁻¹ s⁻¹ | Irrev. | Rev. | * ^d Rev. | 
